For data set [1], the system named is T. gondii β-gal tachyzoites. Nature of the data set: In vitro proliferation of T. gondii β-gal tachyzoites in HFF, β-galactosidase colorimetric test (primary screening and IC50). The class given is cell-based, Toxoplasma gondii. The conditions noted are these: for T. Gondii β-gal Growth (%): 72 h, tachyzoites in HFF, vs 0.1% DMSO control = 100%. As for the experimental part:
In a primary screening, each compound was evaluated at two concentrations 0.1 and 1 µM and added to the media prior to the infection as previously described. Control non-infected non-treated HFF cultures and T. gondii β-gal infected but not-treated cultures were cultivated in complete medium containing 0.01 or 0.1% DMSO. The 96-well plates were incubated for 72 h at 37 °C/5% CO2 as previously described.
For the IC50 determination on T. gondii β-gal, eight serial concentrations ranging from 7 nM to 1 μM were tested for each selected compound as previously described and the β-galactosidase assay was performed as reported. Briefly, infected HFF cultures in 96-well plates were lysed with PBS containing 0.05% Triton X-100. Then the substrate chlorophenolred-β-D-galactopyranoside (CPRG; Roche Diagnostics, Rotkreuz, Switzerland) was added in a final concentration of 0.5 mM. Absorption was measured at 570 nm wavelength using an EnSpire® multimode plate reader (PerkinElmer, Inc., Waltham, MA, USA).

Another data set can be described thus: in vitro. The conditions noted are these: human. As to the method:
(§1) The viability of treated HFF was measured by the alamarBlue metabolic assay, and the proliferation of T. gondii β-gal was quantified by the β-galactosidase colorimetric test. In both cases, results are expressed as percentage (%) compared to control parasitic and host cells treated with 0.1% DMSO for which proliferation and viability were set to 100% (Table 1).
(§2) All tissue culture media were purchased from Gibco-BRL, and biochemical agents from Sigma-Aldrich. […] Transgenic T. gondii β-gal tachyzoites (expressing the β-galactosidase gene from Escherichia coli) from RH strain were kindly provided by Prof.
(§3) The screening sequence for the compounds was described in previous reports. All compounds were prepared as 1 mM stock solutions from powder in dimethyl sulfoxide (DMSO, Sigma, St. Louis, MO, USA). For in vitro activity and cytotoxicity assays, HFF were seeded at 5 × 10^3/well in 96 well plates and allowed to grow to confluence in complete culture medium at 37 °C and 5% CO2.
(§4) All calculations were performed using the corresponding software tool contained in the Excel software package (Microsoft, Redmond, WA, USA). […] Then the medium was removed, the plates were washed once with PBS and 200 μL of resazurin (1:200 dilution in PBS) were added to each well. […] Fluorescence was measured at two different time points: T0 as starting timepoint and T5h as at 5 h later. Relative fluorescence units were calculated from time points with linear increases.

Data set [2] is described as follows: Stability in DMSO-d6 followed by 1H NMR. The following applies: 25 °C, 5 min and more than 1 month after sample preparation.
Data set [3] has as its system human foreskin fibroblasts (HFF). Nature of the data set: in vitro. As for the experimental part:
as §1, §2, §3, §4

A word on the viability: it is a per cent measure of how many cells are alive, often set against a control. Low values mean more harm to the cells, high ones less harm to the cells. In general, IC50 refers to the concentration needed to halve the response being measured.

Take `CC(=O)OC[C@H]1O[C@@H](N=[N+]=[N-])[C@H](OC(C)=O)[C@@H](OC(C)=O)[C@@H]1OC(C)=O` [Compound 10, 2,3,4,6-tetra-O-acetyl-β-D-glucopyranosyl azide]: the figures for the “T. Gondii β-gal Growth (%)” value in data set [1] (0.1 µM) and in data set [1] (1 µM) were 101 ± 1% and 99 ± 0%, respectively. Further, in data set [1] (0.1 and 1 µM), the “Antiparasitic activity (in words)” value was “neither antiparasitic activity”. The viability at 72 h, 0.1 µM in “in vitro” amounted to 98 ± 1%. For the same compound, in “in vitro”, the viability at 72 h, 1 µM came out at 99%.

Consider `CC(=O)OC[C@H]1O[C@@H](OCCCc2cn(Cc3ccccc3[S-])nn2)[C@H](OC(C)=O)[C@@H](OC(C)=O)[C@@H]1OC(C)=O.CC(C)(C)c1ccc(C[S-])cc1.CC(C)(C)c1ccc(C[S-])cc1.Cc1ccc(C(C)C)cc1.Cc1ccc(C(C)C)cc1.[Cl-].[Ru+2].[Ru+2]` [Compound 25], for which the “T. Gondii β-gal Growth (%)” value in data set [1] (0.1 µM) is 75 ± 2%; in data set [1] (1 µM) it was 27 ± 0%. For the same compound, the “Stability in DMSO-d6 (1H NMR spectra)” value in data set [2] is recorded as “no significant modifications”. The “HFF Viability (%)” value amounted to 98 ± 1% in data set [3] (0.1 µM) and 97 ± 1% in data set [3] (1 µM).

As to `CC(=O)OC[C@H]1O[C@@H](OCCCc2cn(Cc3ccccc3[S-])nn2)[C@H](OC(C)=O)[C@@H](OC(C)=O)[C@H]1OC(C)=O.CC(C)(C)c1ccc(C[S-])cc1.CC(C)(C)c1ccc(C[S-])cc1.Cc1ccc(C(C)C)cc1.Cc1ccc(C(C)C)cc1.[Cl-].[Ru+2].[Ru+2]` [Compound 26], the figures for the “T. Gondii β-gal Growth (%)” value in data set [1] (0.1 µM) and in data set [1] (1 µM) were 89 ± 1% and 0 ± 0%, respectively. Further, the “IC50 fold lower compared to pyrimethamine” value in data set [1] (T. gondii β-gal, pyrimethamine IC50 = 0.326 µM) is on record as 2 fold. The same compound yielded a concentration for half-maximal inhibition (IC50) in data set [1] (eight serial concentrations 7 nM to 1 µM) of 153 nM. Further, the “Stability in DMSO-d6 (1H NMR spectra)” value in data set [2] is “no significant modifications”. In addition, the “HFF Viability (%)” value in data set [3] (0.1 µM) was 98 ± 1%; in data set [3] (1 µM), 99 ± 1%. For the same compound, the “HFF Viability at 2.5 µM (%)” value in data set [3] (2.5 µM) came to 97%.

Values taken from PMC9865825, “Synthesis and Antiparasitic Activity of New Trithiolato-Bridged Dinuclear Ruthenium(II)-arene-carbohydrate Conjugates” (Molecules, 2023).
